Assay [1] has as its target T1, human cloned CHRM4 receptor (M4_CHO cells) (Homo sapiens, UniProt P08173).
T1 construct: expressed in transfected cells; host or cells: CHO-K1
T1 sequence (P08173 1-479): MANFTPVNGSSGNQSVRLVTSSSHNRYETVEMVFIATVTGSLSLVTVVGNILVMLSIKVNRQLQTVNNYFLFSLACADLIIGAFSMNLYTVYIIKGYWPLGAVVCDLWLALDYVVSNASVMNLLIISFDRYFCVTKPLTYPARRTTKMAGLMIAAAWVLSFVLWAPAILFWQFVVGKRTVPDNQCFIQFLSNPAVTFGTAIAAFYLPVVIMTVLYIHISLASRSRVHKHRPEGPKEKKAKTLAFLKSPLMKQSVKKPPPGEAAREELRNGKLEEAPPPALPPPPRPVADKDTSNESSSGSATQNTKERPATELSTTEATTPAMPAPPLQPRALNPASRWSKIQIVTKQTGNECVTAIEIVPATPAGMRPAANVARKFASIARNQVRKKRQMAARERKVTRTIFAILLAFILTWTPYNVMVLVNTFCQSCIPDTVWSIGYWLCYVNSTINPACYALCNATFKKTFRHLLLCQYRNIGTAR
Kind of assay: CHRM4 Ca++ Flux Assay (agonist mode, FDSS 7000EX). The class given is cell-based. Particulars: for Emax: Percent Activity, read-out: M4 FDSS PA; for EC50: geometric mean if tested more than once, read-out: M4 FDSS EC50. The procedure, abridged: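 Agonist-mode response was expressed as percent of the Carbachol EC100 and fitted with four-parameter nonlinear regression over an 11-point triplicate dose series. Intracellular Ca++ was tracked for 3 min by fluorescent dye in CHO-K1 cells stably expressing human CHRM4. Cells were preincubated 60 min with 20 μM ATP in buffer containing 2.5 mM probenecid.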

The target of assay [2] is T2, Cloned human M1 receptor (CHRM1) stably expressed in HEK293 cells (Homo sapiens, UniProt P11229).
T2 construct: expressed in transfected cells; host or cells: HEK293
T2 sequence (P11229 1-460): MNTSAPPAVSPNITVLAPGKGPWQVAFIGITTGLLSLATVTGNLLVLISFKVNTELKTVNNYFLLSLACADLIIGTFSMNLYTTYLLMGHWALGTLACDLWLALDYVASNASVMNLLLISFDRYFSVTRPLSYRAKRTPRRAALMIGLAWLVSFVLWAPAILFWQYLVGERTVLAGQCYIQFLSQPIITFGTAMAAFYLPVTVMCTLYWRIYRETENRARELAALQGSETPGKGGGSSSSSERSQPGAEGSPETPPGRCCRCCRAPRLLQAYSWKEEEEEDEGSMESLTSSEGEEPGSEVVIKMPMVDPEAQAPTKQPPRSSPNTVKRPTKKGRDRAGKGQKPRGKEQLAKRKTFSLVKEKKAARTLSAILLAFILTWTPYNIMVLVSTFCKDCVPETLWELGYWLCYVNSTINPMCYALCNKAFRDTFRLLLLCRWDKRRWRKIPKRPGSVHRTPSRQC
Kind of assay: CHRM1 Ca++ Flux Assay (agonist mode, FDSS 7000EX). Particulars: for Emax: HEK293, Percent Activity, read-out: M1 FDSS PA; for EC50: geometric mean if tested more than once. The class given is cell-based. The procedure, abridged:
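Compounds tested as agonists at 11 concentrations in triplicate, with calcium traces captured over 3 minutes. Cells were HEK293 with stable human CHRM1 expression, plated overnight at 25K/well and loaded with calcium dye. Responses normalized to carbachol EC100 and fitted by four-parameter nonlinear regression.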

For the compound `FC1(COc2ccccc2C2CCN([C@@H]3CCC4(C3)CN(c3nncs3)C4)CC2)COC1` [Example 1H, (R)-2-(6-(4-(2-((3-fluorooxetan-3-yl)methoxy)phenyl)piperidin-1-yl)-2-azaspiro[3.4]octan-2-yl)-1,3,4-thiadiazole], the Emax in assay [1] was 71%; in assay [2], 88%. Further, the EC50 (in general, the concentration giving half of the maximal effect) in assay [1] was 1 nM; in assay [2], 48 nM.

In the case of `c1ccc(C2CCN([C@@H]3CCC4(C3)CN(c3nncs3)C4)CC2)c(OCC2CCOCC2)c1` [Example 1I, (R)-2-(6-(4-(2-((tetrahydro-2H-pyran-4-yl)methoxy)phenyl)piperidin-1-yl)-2-azaspiro[3.4]octan-2-yl)-1,3,4-thiadiazole], the Emax was determined as 61% in assay [1] and 55% in assay [2]. The values for the EC50 in assay [1] and in assay [2] were 4 nM and 616 nM, respectively.

`FC1(COc2ccccc2C2CCN([C@@H]3CCC4(C3)CN(c3nncs3)C4)CC2)CCOCC1` [Example 1J, (R)-2-(6-(4-(2-((4-fluorotetrahydro-2H-pyran-4-yl)methoxy)phenyl)piperidin-1-yl)-2-azaspiro[3.4]octan-2-yl)-1,3,4-thiadiazole]: in assay [1], the Emax was 50% and the EC50 was found to be 6 nM. Further, in assay [2], the Emax was 78% and the EC50 stood at 182 nM.

Consider `c1ccc(C2CCN([C@@H]3CCC4(C3)CN(c3cncnc3)C4)CC2)c(OC2COC2)c1` [Example 1K, (R)-6-(4-(2-(oxetan-3-yloxy)phenyl)piperidin-1-yl)-2-(pyrimidin-5-yl)-2-azaspiro[3.4]octane], for which, in assay [1], the Emax was 74% and the EC50 was 1 nM. For the same compound, in assay [2], the Emax came to 85% and it took 24 nM to reach a half-maximal effect (EC50).

Turning to `c1ccc(C2CCN([C@@H]3CCC4(C3)CN(c3cncnc3)C4)CC2)c(OC2CCOCC2)c1` [Example 1L, (R)-2-(pyrimidin-5-yl)-6-(4-(2-((tetrahydro-2H-pyran-4-yl)oxy)phenyl)piperidin-1-yl)-2-azaspiro[3.4]octane], in assay [1], the Emax came to 67% and the EC50 came to 2 nM. Further, in assay [2], the Emax came out at 42% and the EC50 came out at 166 nM.

With `c1ccc(C2CCN([C@@H]3CCC4(C3)CN(c3cncnc3)C4)CC2)c(OCC2CCOCC2)c1` [Example 1M, (R)-2-(pyrimidin-5-yl)-6-(4-(2-((tetrahydro-2H-pyran-4-yl)methoxy)phenyl)piperidin-1-yl)-2-azaspiro[3.4]octane], the Emax was determined as 53% in assay [1] and 11% in assay [2]. Besides, the EC50 in assay [1] came to 3 nM; in assay [2], 1550 nM.

With `c1ccc(C2CCN([C@@H]3CCC4(C3)CN(c3cncnc3)C4)CC2)c(OCC2COC2)c1` [Example 1N, (R)-6-(4-(2-(oxetan-3-ylmethoxy)phenyl)piperidin-1-yl)-2-(pyrimidin-5-yl)-2-azaspiro[3.4]octane], in assay [1], the Emax stood at 62% and the EC50 was < 0.4 nM. Further, in assay [2], the Emax was determined as 70% and the EC50 came out at 69 nM.

With `c1ccc(C2CCN([C@@H]3CCC4(C3)CN(c3cncnc3)C4)CC2)c(OC2CC3(COC3)C2)c1` [Example 1O, (R)-6-(4-(2-((2-oxaspiro[3.3]heptan-6-yl)oxy)phenyl)piperidin-1-yl)-2-(pyrimidin-5-yl)-2-azaspiro[3.4]octane], in assay [1], the Emax was found to be 59% and the EC50 stood at 3 nM. Besides, in assay [2], the Emax amounted to 0% and the EC50 is > 25000 nM.

On to `c1ccc(C2CCN([C@@H]3CCC4(C3)CN(c3cncnc3)C4)CC2)c(O[C@@H]2CCOC2)c1` [Example 1P, (R)-2-(pyrimidin-5-yl)-6-(4-(2-(((R)-tetrahydrofuran-3-yl)oxy)phenyl)piperidin-1-yl)-2-azaspiro[3.4]octane], for which, in assay [1], the Emax was determined as 61% and the EC50 worked out at 1 nM. In addition, in assay [2], the Emax stood at 43% and the EC50 was 98 nM.

`CC(C)(O)COc1ccccc1C1CCN([C@@H]2CCC3(C2)CN(c2nnco2)C3)CC1` [Example 2A, (R)-1-(2-(1-(2-(1,3,4-oxadiazol-2-yl)-2-azaspiro[3.4]octan-6-yl)piperidin-4-yl)phenoxy)-2-methylpropan-2-ol]: in assay [1], the Emax was 69% and the EC50 was found to be 10 nM. Moreover, in assay [2], the Emax is 74% and it took 147 nM to reach a half-maximal effect (EC50).

As for `c1ccc(C2CCN([C@@H]3CCC4(C3)CN(c3nnco3)C4)CC2)c(O[C@@H]2CCOC2)c1` [Example 2B, 2-((R)-6-(4-(2-(((R)-tetrahydrofuran-3-yl)oxy)phenyl)piperidin-1-yl)-2-azaspiro[3.4]octan-2-yl)-1,3,4-oxadiazole], in assay [1], the Emax came out at 95% and the EC50 was < 0.4 nM. In addition, in assay [2], the Emax stood at 107% and the EC50 stood at 36 nM.

As for `COCCOc1ccccc1C1CCN([C@@H]2CCC3(C2)CN(c2nnco2)C3)CC1` [Example 2C], the figures for the Emax in assay [1] and in assay [2] were 72% and 79%, respectively. The results for the EC50 in assay [1] and in assay [2] were 1 nM and 59 nM, respectively.

As to `FC1(COc2ccccc2C2CCN([C@@H]3CCC4(C3)CN(c3nnco3)C4)CC2)CCOCC1` [Example 2D, (R)-2-(6-(4-(2-((4-fluorotetrahydro-2H-pyran-4-yl)methoxy)phenyl)piperidin-1-yl)-2-azaspiro[3.4]octan-2-yl)-1,3,4-oxadiazole], in assay [1], the Emax was 72% and the EC50 stood at 1 nM. In addition, in assay [2], the Emax worked out at 82% and the EC50 was found to be 141 nM.

For the compound `CC1(COc2ccccc2C2CCN([C@@H]3CCC4(C3)CN(c3nnco3)C4)CC2)CCOCC1` [Example 2E, (R)-2-(6-(4-(2-((4-methyltetrahydro-2H-pyran-4-yl)methoxy)phenyl)piperidin-1-yl)-2-azaspiro[3.4]octan-2-yl)-1,3,4-oxadiazole], in assay [1], the Emax turned out to be 86% and the EC50 is 2 nM. Further, in assay [2], the Emax turned out to be 78% and a half-maximal effect (EC50) was put at 381 nM.

As for `c1ccc(C2CCN([C@@H]3CCC4(C3)CN(c3nnco3)C4)CC2)c(OC2CCOCC2)c1` [Example 2F, (R)-2-(6-(4-(2-((tetrahydro-2H-pyran-4-yl)oxy)phenyl)piperidin-1-yl)-2-azaspiro[3.4]octan-2-yl)-1,3,4-oxadiazole], in assay [1], the Emax came to 88% and the EC50 was 7 nM. Besides, in assay [2], the Emax is 112% and it took 277 nM to reach a half-maximal effect (EC50).

Take `c1ccc(C2CCN([C@@H]3CCC4(C3)CN(c3nnco3)C4)CC2)c(OCC2CCOCC2)c1` [Example 2G, (R)-2-(6-(4-(2-((tetrahydro-2H-pyran-4-yl)methoxy)phenyl)piperidin-1-yl)-2-azaspiro[3.4]octan-2-yl)-1,3,4-oxadiazole]: in assay [1], the Emax was found to be 70% and the EC50 was found to be 7 nM. Besides, in assay [2], the Emax turned out to be 51% and the EC50 came to 429 nM.

Consider `c1ccc(C2CCN([C@@H]3CCC4(C3)CN(c3nnco3)C4)CC2)c(C2CCOCC2)c1` [Example 2H, (R)-2-(6-(4-(2-(tetrahydro-2H-pyran-4-yl)phenyl)piperidin-1-yl)-2-azaspiro[3.4]octan-2-yl)-1,3,4-oxadiazole], for which, in assay [1], the Emax came out at 83% and the EC50 worked out at 3 nM. Further, in assay [2], the Emax stood at 61% and it took 178 nM to reach a half-maximal effect (EC50).

Regarding `Fc1ccc(C2CCOCC2)c(C2CCN([C@@H]3CCC4(C3)CN(c3nnco3)C4)CC2)c1` [Example 2I, (R)-2-(6-(4-(5-fluoro-2-(tetrahydro-2H-pyran-4-yl)phenyl)piperidin-1-yl)-2-azaspiro[3.4]octan-2-yl)-1,3,4-oxadiazole], in assay [1], the Emax stood at 96% and the EC50 worked out at 1 nM. Also, in assay [2], the Emax was 89% and a half-maximal effect (EC50) was put at 106 nM.

Take `c1ccc(C2CCOC2)c(C2CCN([C@@H]3CCC4(C3)CN(c3nnco3)C4)CC2)c1` (stereo partly drawn) [Example 2K, 2-((6R)-6-(4-(2-(tetrahydrofuran-3-yl)phenyl)piperidin-1-yl)-2-azaspiro[3.4]octan-2-yl)-1,3,4-oxadiazole]: in assay [1], the Emax amounted to 93% and the EC50 was 3 nM. Further, in assay [2], the Emax came out at 97% and the midpoint of the response, the EC50, lay at 133 nM.
